In patent US20250389728A1, “NOVEL CLASS OF TRIOXANE-BASED MS-CLEAVABLE CROSS-LINKERS TO ADVANCE PROTEIN-PROTEIN INTERACTION STUDIES USING CROSS-LINKING MASS SPECTROMETRY” (The Regents of the University of California, priority 2024, published 2025):

Assays:
human 26S proteasomes = experiment: TSTO cross-linking of affinity-purified 26S proteasomes, LC-MSn
Procedure: (§1) Cross-linked proteins were then digested in 8M urea buffer using LysC for 4 h at 37° C., followed by trypsin digestion at 37° C. overnight after diluting urea concentration to <1.5 M. The resulting peptide mixtures were extracted and desalted using C18 tips (Agilent) prior to MS analyses.
LC-MS^n analysis. LC-MS^n analysis of cross-linked peptides was performed using an UltiMate 3000 UPLC (Thermo Fisher Scientific) liquid chromatograph coupled on-line to an Orbitrap Fusion Lumos mass spectrometer (Thermo Fisher Scientific). Peptides were separated by reverse-phase on a 50 cm×75 μm I.D. Acclaim® PepMap RSLC column using gradients of 4% to 25% acetonitrile at a flow rate of 300 nL/min (solvent A: 100% H2O, 0.1% formic acid; solvent B: 100% acetonitrile, 0.1% formic acid) prior to MS^n analysis. For each MS^n acquisition, duty cycles consisted of one full Fourier transform scan mass spectrum (375-1500 m/z, resolution of 60,000 at m/z 400) followed by data-dependent MS^2 and MS^3 acquired at top speed in the Orbitrap and linear ion trap, respectively. Ions detected in MS^1 with 4+ or greater charge were selected and subjected to CID fragmentation (NCE 23%) in MS^2 and resulting ions were detected in the Orbitrap (resolution 30,000). Ions observed in MS^2 spectra with charge 2+ or greater were selected and fragmented in MS^3 using CID (NCE 35%) and detected in the linear ion trap in ‘Rapid’ mode. Ions selected for MS^3 were either based on abundance (top 4 or 5 most intense ions in MS^2) or targeted based on doublets with mass difference pairs (Δ=18.02 Da) corresponding to cross-linker remnant moiety water loss. For 26S proteasome cross-links, each acquisition was 200 min and ion selection for MS^3 was based on top intensity. For SEC-separated F24 fractions, the entire HpHt fraction was injected; for F26 fractions half of the HpHt fraction was injected for each LC-MS^n analysis. Each acquisition was 120 or 150 min, and both top intensity and mass difference-targeted methods were used for selecting ions for MS^3 analysis. […]

BSA = BSA (Bos taurus, UniProt P02769); experiment: TSTO cross-linking of BSA, LC-MSn
Procedure: as §1, with “The reaction was carried out for 1 h at RT, followed by quenching with ammonium bicarbonate. […] Cross-linked” for “Cross-linked”
LC-MS^n analysis. LC-MS^n analysis of cross-linked peptides was performed using an UltiMate 3000 UPLC (Thermo Fisher Scientific) liquid chromatograph coupled on-line to an Orbitrap Fusion Lumos mass spectrometer (Thermo Fisher Scientific). Peptides were separated by reverse-phase on a 50 cm×75 μm I.D. Acclaim® PepMap RSLC column using gradients of 4% to 25% acetonitrile at a flow rate of 300 nL/min (solvent A: 100% H2O, 0.1% formic acid; solvent B: 100% acetonitrile, 0.1% formic acid) prior to MS^n analysis. For each MS^n acquisition, duty cycles consisted of one full Fourier transform scan mass spectrum (375-1500 m/z, resolution of 60,000 at m/z 400) followed by data-dependent MS^2 and MS^3 acquired at top speed in the Orbitrap and linear ion trap, respectively. Ions detected in MS^1 with 4+ or greater charge were selected and subjected to CID fragmentation (NCE 23%) in MS^2 and resulting ions were detected in the Orbitrap (resolution 30,000). Ions observed in MS^2 spectra with charge 2+ or greater were selected and fragmented in MS^3 using CID (NCE 35%) and detected in the linear ion trap in ‘Rapid’ mode. Ions selected for MS^3 were either based on abundance (top 4 or 5 most intense ions in MS^2) or targeted based on doublets with mass difference pairs (Δ=18.02 Da) corresponding to cross-linker remnant moiety water loss. For 26S proteasome cross-links, each acquisition was 200 min and ion selection for MS^3 was based on top intensity. For SEC-separated F24 fractions, the entire HpHt fraction was injected; for F26 fractions half of the HpHt fraction was injected for each LC-MS^n analysis. Each acquisition was 120 or 150 min, and both top intensity and mass difference-targeted methods were used for selecting ions for MS^3 analysis.
Spectrometric data were extracted from .raw files using PAVA. Extracted MS^3 spectra were subjected to protein database searching via Batch-Tag within a developmental version of Protein Prospector (v. 6.3.5, University of California, San Francisco) against a randomly concatenated SwissProt database consisting of 20,418 human proteins and their corresponding decoys. Mass tolerances for parent ions and fragment ions were set as ±15 ppm and 0.6 Da, respectively. Trypsin was set as the enzyme with three maximum missed cleavages allowed. Cysteine carbamidomethylation was selected as a constant modification, while protein N-terminal acetylation, methionine oxidation, and N-terminal conversion of glutamine to pyroglutamic acid were selected as variable modifications.

Chain of BSA (P02769 25-607): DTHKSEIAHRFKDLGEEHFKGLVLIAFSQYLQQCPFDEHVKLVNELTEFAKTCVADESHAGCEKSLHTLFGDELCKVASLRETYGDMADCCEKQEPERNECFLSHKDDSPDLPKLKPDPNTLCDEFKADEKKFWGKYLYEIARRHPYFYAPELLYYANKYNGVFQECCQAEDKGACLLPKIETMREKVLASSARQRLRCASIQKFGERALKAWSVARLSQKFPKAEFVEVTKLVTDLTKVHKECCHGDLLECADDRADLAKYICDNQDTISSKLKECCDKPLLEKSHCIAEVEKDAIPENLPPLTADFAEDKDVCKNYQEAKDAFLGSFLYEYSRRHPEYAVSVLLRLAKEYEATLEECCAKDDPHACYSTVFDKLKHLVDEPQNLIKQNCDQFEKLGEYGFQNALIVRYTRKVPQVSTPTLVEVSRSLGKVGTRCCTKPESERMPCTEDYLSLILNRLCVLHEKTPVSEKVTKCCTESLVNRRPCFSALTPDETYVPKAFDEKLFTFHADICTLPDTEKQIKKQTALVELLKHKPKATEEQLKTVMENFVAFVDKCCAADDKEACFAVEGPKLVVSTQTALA

share of unique CSMs that were tri-links (human 26S proteasomes; 0.75 mM TSTO on-bead): 41.3%
total unique CSMs (human 26S proteasomes; 0.75 mM TSTO on-bead, PBS pH 7.5, 1 h): 808
satisfaction rates (≤35 Å) of mapped tri-links and bi-links (human 26S proteasomes; mapped to PDB: 7QY7): ~90%
redundant cross-linked spectra matches (CSMs) (BSA; 1 mM TSTO, pH 7.4 PBS, 1 h RT): 823
unique CSMs (BSA; 1 mM TSTO, pH 7.4 PBS, 1 h RT): 167
tri-links share of total unique CSMs (BSA; 45/167): ~27%
overall mapped distance median (Cα-Cα) (BSA; mapped to PDB:4F5S): 21.1 Å
satisfaction rate of cross-links ≤35 Å (BSA; mapped to PDB:4F5S): 90%
Compound: O=C(CCCC1OC(CCCC(=O)ON2C(=O)CCC2=O)OC(CCCC(=O)ON2C(=O)CCC2=O)O1)ON1C(=O)CCC1=O (centres unmarked) [TSTO, Tris(2,5-dioxopyrrolidin-1-yl) 4,4′,4″-(1,3,5-trioxane-2,4,6-triyl)tributanoate]
